Test results published in ChEMBL document CHEMBL1177713, “Discovery of 3-[2-(imidazo[1,2-b]pyridazin-3-yl)ethynyl]-4-methyl-N-{4-[(4-methylpiperazin-1-yl)methyl]-3-(trifluoromethyl)phenyl}benzamide (AP24534), a potent, orally active pan-inhibitor of breakpoint cluster region-abelson (BCR-ABL) kinase including the T315I gatekeeper mutant” (J Med Chem, 2010).

Key:
[1] = system: BaF3; assay: cells; conditions: Mus musculus, BaF3, 72 h
Description: Antiproliferative activity against mouse BA/F3 cells expressing ABL T315I mutant after 3 days by MTS assay

[2] = system: BaF3; assay: cells; conditions: Mus musculus, BaF3, 72 h; remark: listed apart in the source
Description: Antiproliferative activity against mouse BA/F3 cells after 3 days by MTS assay

[3] = Clearance in CD rat at 5 mg/kg, iv by LC-MS/MS analysis; format: ADME, organism-based; design: dose 5 mg/kg, route intravenous; conditions: in vivo
[4] = system: Rattus norvegicus; assay: Dose normalized AUC (0 to 24 hrs) in CD rat at 15 mg/kg, po by LC-MS/MS analysis; format: ADME, organism-based; design: time < 24 hr, dose 15 mg/kg, route oral; conditions: in vivo
[5] = system: BaF3; assay: cells; conditions: Mus musculus, BaF3, 72 h; remark: listed apart in the source
Description: Antiproliferative activity against mouse BA/F3 cells expressing wild type ABL after 3 days by MTS assay

[6] = Half life in CD rat at 5 mg/kg, iv by LC-MS/MS analysis; format: ADME, organism-based; design: dose 5 mg/kg, route intravenous; conditions: in vivo
[7] = Volume of distribution in CD rat at 5 mg/kg, iv by LC-MS/MS analysis; format: ADME, organism-based; design: dose 5 mg/kg, route intravenous; conditions: in vivo
[8] = system: Rattus norvegicus; assay: (§1) Cmax in CD rat at 15 mg/kg, po by LC-MS/MS analysis; format: ADME, organism-based; design: dose 15 mg/kg, route oral; conditions: in vivo, BLD = below limit of detection
[9] = system: K562; assay: cells; conditions: Homo sapiens, K562, 72 h
Description: Antiproliferative activity against human K562 cells expressing wild type ABL after 3 days by MTS assay

[10] = system: Mus musculus; assay: Plasma concentration in mouse at 30 mg/kg, po after 24 hrs by LC-MS/MS analysis
[11] = system: Mus musculus; assay: Plasma concentmouseion in CD mouse at 30 mg/kg, po after 6 hrs by LC-MS/MS analysis
[12] = Oral bioavailability in CD rat at 15 mg/kg by LC-MS/MS analysis; format: ADME, organism-based; conditions: in vivo
[13] = system: Mus musculus; assay: Plasma concentmouseion in CD mouse at 30 mg/kg, po after 2 hrs by LC-MS/MS analysis
[14] = as §1; format: ADME, organism-based; design: dose 15 mg/kg, route oral; conditions: CD, in vivo
[15] = Tmax in CD rat at 15 mg/kg, po by LC-MS/MS analysis; format: ADME, organism-based; design: dose 15 mg/kg, route oral; conditions: in vivo
[16] = Half life in CD rat at 15 mg/kg, po by LC-MS/MS analysis; format: ADME, organism-based; design: dose 15 mg/kg, route oral; conditions: in vivo

## Cc1ccc(C(=O)Nc2ccc(CN3CCN(C)CC3)c(C(F)(F)F)c2)cc1C#Cc1cnc2[nH]c(=O)[nH]c2c1
[1]
  IC50: 0.031 µM
[2]
  IC50: 1.86 µM
[3]
  clearance: 2.44 L/h/kg
[4]; BLD = below limit of detection
  AUC: BLD
[5]
  IC50: 0.0039 µM
[6]
  half-life: 5 h
[7]
  Vd: 17.7 L/kg
[8]
  Cmax: BLD

## Cc1cn(-c2cc(NC(=O)c3ccc(C)c(/C=C/n4cnc5c(N)ncnc54)c3)cc(C(F)(F)F)c2)cn1
[1]
  IC50: 0.295 µM
[9]
  IC50: 0.0014 µM

## CCN1CCN(Cc2ccc(NC(=O)c3ccc(C)c(C#Cc4cnc5cccnn45)c3)cc2C(F)(F)F)CC1
[1]
  IC50: 0.0073 µM
[2]
  IC50: 1.16 µM
[3]
  clearance: 1.02 L/h/kg
[4]
  AUC: 518 ng·h/mL/mg/kg
[5]
  IC50: 0.001 µM
[10]
  concentration at 24 h: 0.0088 µg/mL
[11]
  concentration at 6 h: 0.387 µg/mL
[6]
  half-life: 8.9 h
[12]
  bioavailability: 53%
[13]
  concentration at 2 h: 0.623 µg/mL
[7]
  Vd: 13.1 L/kg
[14]
  Cmax: 0.215 µg/mL
[15]
  Tmax: 6 h
[16]
  half-life: 22.3 h

## CN1CCN(Cc2ccc(NC(=O)c3ccc(F)c(C#Cc4cnc5cccnn45)c3)cc2C(F)(F)F)CC1
[1]
  IC50: 0.035 µM
[2]
  IC50: 6.29 µM
[3]
  clearance: 0.37 L/h/kg
[4]
  AUC: 1707.5 ng·h/mL/mg/kg
[5]
  IC50: 0.0061 µM
[10]
  concentration at 24 h: 0.163 µg/mL
[11]
  concentration at 6 h: 2.1 µg/mL
[6]
  half-life: 5.9 h
[12]
  bioavailability: 62.3%
[13]
  concentration at 2 h: 2.48 µg/mL
[7]
  Vd: 3.1 L/kg
[14]
  Cmax: 1.18 µg/mL
[15]
  Tmax: 6 h
[16]
  half-life: 11.6 h
